For assay [1], the target named is T1, Mcl-1/Bim interaction, recombinant human Mcl-1 (171-327) (Homo sapiens, UniProt Q07820).
T1 construct: made in house
In words: Cell free Mcl-1: Bim Affinity Assay (Mcl-1 HTRF). In kind it is binding. Summed up: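 Biotin-Bim(51-76) peptide, TR-FRET readout, overnight incubation; IC50 from duplicate competition curves, 4-parameter fit.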

Assay [2] concerns OPM-2 human multiple myeloma cell line. Briefly: Cell Viability Assay (OPM-2 10 FBS). In kind it is cell-based. Particulars: OPM-2 cells, CellTiter-Glo. Summed up:
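IC50 from 4-parameter logistic fit of CellTiter-Glo luminescence. 3000 cells/well, 10% FBS medium, serial compound dilutions, 16 h, 37 °C/5% CO2; read 25 min post-reagent.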

The mark [3] stands for this setting: TR-FRET, 0.1 nM Mcl-1 (171-327), 0.05 nM biotin-Bim (51-76).
Where [4] appears, read: Homo sapiens, OPM-2, 16 h, 16 h incubation.
[5] abbreviates: cell free Mcl-1:Bim TR-FRET, recombinant human Mcl-1 (171-327).
[6] abbreviates: Homo sapiens, OPM-2, 16 h, 16 h.

T1 sequence (Q07820 171-327): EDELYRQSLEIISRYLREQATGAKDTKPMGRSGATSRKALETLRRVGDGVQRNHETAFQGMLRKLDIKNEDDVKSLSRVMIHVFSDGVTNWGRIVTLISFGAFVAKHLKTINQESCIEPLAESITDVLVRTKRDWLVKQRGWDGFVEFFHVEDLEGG

`COCCO[C@H]1/C=C/[C@H](C)[C@H](C)CS(=O)(=O)NC(=O)c2ccc3c(c2)N(C[C@@H]2CC[C@H]21)C[C@@]1(CCCc2cc(Cl)ccc21)CO3` (single isomer, unassigned) [Example 1065]: the IC50 in assay [1] (setting [3]) came to 0.402 nM; in assay [2] (16 h incubation) it was 94.9 nM.
Turning to `O=C1NS(=O)(=O)C2COCC2CC=CC(O)C2CCC2CN2CC3(CCCc4cc(Cl)ccc43)COc3ccc1cc32` (single isomer, unassigned) [Example 1036], the IC50 stood at 1.36 nM in assay [1] (setting [3]) and 11300 nM in assay [2] (setting [4]).
On to `O=C1NS(=O)(=O)CC/C=C/C[C@H](O)[C@@H]2CC[C@H]2CN2C[C@@]3(CCCc4cc(Cl)ccc43)COc3ccc1cc32` (single isomer, unassigned) [Example 846], for which the IC50 came out at 2.18 nM in assay [1] (setting [5]) and 2760 nM in assay [2] (setting [6]).
On the same counts, the results for `COC(C)CC1CCC=CC(OC)C2CCC2CN2CC3(CCCc4cc(Cl)ccc43)COc3ccc(cc32)C(=O)NS1(=O)=O` (single isomer, unassigned) [Example 552] are 0.481 nM and 2510 nM.
`C[C@H]1[C@H](C)/C=C/[C@H](O)[C@@H]2CC[C@H]2CN2C[C@@]3(CCCc4cc(Cl)ccc43)COc3ccc(cc32)C(=O)NS(=O)(=O)[C@@H]1C` (single isomer, unassigned) [Example 1042]: the IC50 in assay [1] (setting [3]) was found to be 0.78 nM; in assay [2] (setting [4]), 393 nM.
On to `C[C@@H]1[C@@H](C)C/C=C/[C@H](OCCN2CCOCC2)[C@@H]2CC[C@H]2CN2C[C@@]3(CCCc4cc(Cl)ccc43)COc3ccc(cc32)C(=O)NS1(=O)=O` [Example 720, (1S,3′R,6′R,7′S,8′E,11′S,12′R)-6-chloro-11′,12′-dimethyl-7′-(2-(4-morpholinyl)ethoxy)-3,4-dihydro-2H,15′H-spiro[naphthalene-1,22′-[20]oxa[13]thia[1,14]diazatetracyclo[14.7.2.0^3,6.0^19,24]pentacosa [8,16,18,24]tetraen]-15′-one-13′, 13′-dioxide], for which the results for the IC50 in assay [1] (setting [5]) and in assay [2] (setting [6]) were 0.327 nM and 54.2 nM, respectively.
On the same counts, the results for `C[C@@H]1[C@@H](C)C/C=C/[C@H](OCCN2CCOC[C@@H]2C)[C@@H]2CC[C@H]2CN2C[C@@]3(CCCc4cc(Cl)ccc43)COc3ccc(cc32)C(=O)NS1(=O)=O` [Example 534, (1S,3′R,6′R,7′S,8′E,11′S,12′R)-6-chloro-11′,12′-dimethyl-7′-(2-((3S)-3-methyl-4-morpholinyl)ethoxy)-3,4-dihydro-2H,15′H-spiro[naphthalene-1,22′-[20]oxa[13]thia[1,14]diazatetracyclo[14.7.2.0^3,6.0^19,24]pentacosa [8,16,18,24]tetraen]-15′-one 13′,13′-dioxide] are 0.788 nM and 99.3 nM.
Turning to `CC[C@@H]1CC/C=C/[C@H](OCc2ncn(C)n2)[C@@H]2CC[C@H]2CN2C[C@@]3(CCCc4cc(Cl)ccc43)COc3ccc(cc32)C(=O)NS1(=O)=O` [Example 423, (1S,3′R,6′R,7′S,8′E,12′R)-6-chloro-12′-ethyl-7′-((1-methyl-1H-1,2,4-triazol-3-yl)methoxy)-3,4-dihydro-2H,15′H-spiro[naphthalene-1,22′-[20]oxa[13]thia[1,14]diazatetracyclo[14.7.2.0^3,6.0^19,24]pentacosa [8,16,18,24]tetraen]-15′-one 13′,13′-dioxide], the IC50 was determined as 0.249 nM in assay [1] (setting [3]) and 198 nM in assay [2] (setting [6]).
Take `COCCO[C@H]1/C=C/C[C@H](C)[C@@H](CC(F)(F)F)S(=O)(=O)NC(=O)c2ccc3c(c2)N(C[C@@H]2CC[C@H]21)C[C@@]1(CCCc2cc(Cl)ccc21)CO3` (single isomer, unassigned) [Example 669]: the IC50 in assay [1] (setting [5]) turned out to be 1.37 nM; in assay [2] (16 h), 272 nM.
Turning to `O=C1NS(=O)(=O)[C@H]2CCC[C@H]2C/C=C/[C@H](O)[C@@H]2CC[C@H]2CN2C[C@@]3(CCCc4cc(Cl)ccc43)COc3ccc1cc32` (single isomer, unassigned) [Example 324], the half-inhibitory concentration (IC50) turned out to be 1.68 nM in assay [1] (setting [3]) and 1940 nM in assay [2] (16 h).
